One assay has as its target DGKα (Homo sapiens, UniProt P23743). The experiment in a line: DGKα biochemical assay (ADP-Glo). The note with it: read-out: DGK α IC50. The method, boiled down:
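ADP-Glo kinase assay using OAG/PS (1:2) lipid substrate, sonicated, in HEPES pH 7.0 buffer with MgCl2, CaCl2, DTT, BSA, Triton X-100. Enzyme preincubated with compound 30 min at RT; substrate with ATP (DGKα: 400 μM) added, 45 min RT. Luminescence read; % inhibition vs DMSO and no-enzyme controls.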
On the technique in general: ADP-Glo turns the ADP formed in a reaction into a luminescent signal.

For a further assay, the target named is T1, DGKζ (Homo sapiens, UniProt Q13574).
T1 construct: purchased Carna 12-110
Kind of assay: DGKζ biochemical assay (ADP-Glo). The note with it: read-out: DGK ζ IC50.

SMILES strings stand for the structures.

The values below come from patent US20230271954A1 (Gossamer Bio Services, Inc., priority 2020, published 2023).

As usually defined, the IC50 is the midpoint of a concentration-inhibition curve.

Chain of DGKα (P23743 whole entry): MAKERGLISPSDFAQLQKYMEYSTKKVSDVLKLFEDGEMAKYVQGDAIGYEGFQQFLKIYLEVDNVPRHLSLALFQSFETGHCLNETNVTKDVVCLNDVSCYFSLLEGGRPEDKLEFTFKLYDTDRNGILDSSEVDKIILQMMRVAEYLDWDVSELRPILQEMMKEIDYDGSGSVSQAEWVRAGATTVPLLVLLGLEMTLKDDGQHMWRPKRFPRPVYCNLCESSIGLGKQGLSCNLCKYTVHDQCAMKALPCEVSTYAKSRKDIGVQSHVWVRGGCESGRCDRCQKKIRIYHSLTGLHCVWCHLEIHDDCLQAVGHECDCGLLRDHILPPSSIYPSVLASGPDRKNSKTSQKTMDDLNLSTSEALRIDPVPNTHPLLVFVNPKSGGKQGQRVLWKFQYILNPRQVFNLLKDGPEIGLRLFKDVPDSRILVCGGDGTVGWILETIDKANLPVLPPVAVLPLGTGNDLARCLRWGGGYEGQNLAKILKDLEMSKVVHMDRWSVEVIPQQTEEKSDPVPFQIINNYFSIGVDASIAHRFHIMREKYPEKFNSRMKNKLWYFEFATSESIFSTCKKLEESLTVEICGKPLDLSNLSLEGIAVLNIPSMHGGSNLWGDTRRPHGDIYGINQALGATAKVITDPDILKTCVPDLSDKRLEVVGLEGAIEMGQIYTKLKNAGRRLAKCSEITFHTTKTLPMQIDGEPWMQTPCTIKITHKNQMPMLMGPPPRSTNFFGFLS
T1 sequence (Q13574 1-929 isoform Q13574-4): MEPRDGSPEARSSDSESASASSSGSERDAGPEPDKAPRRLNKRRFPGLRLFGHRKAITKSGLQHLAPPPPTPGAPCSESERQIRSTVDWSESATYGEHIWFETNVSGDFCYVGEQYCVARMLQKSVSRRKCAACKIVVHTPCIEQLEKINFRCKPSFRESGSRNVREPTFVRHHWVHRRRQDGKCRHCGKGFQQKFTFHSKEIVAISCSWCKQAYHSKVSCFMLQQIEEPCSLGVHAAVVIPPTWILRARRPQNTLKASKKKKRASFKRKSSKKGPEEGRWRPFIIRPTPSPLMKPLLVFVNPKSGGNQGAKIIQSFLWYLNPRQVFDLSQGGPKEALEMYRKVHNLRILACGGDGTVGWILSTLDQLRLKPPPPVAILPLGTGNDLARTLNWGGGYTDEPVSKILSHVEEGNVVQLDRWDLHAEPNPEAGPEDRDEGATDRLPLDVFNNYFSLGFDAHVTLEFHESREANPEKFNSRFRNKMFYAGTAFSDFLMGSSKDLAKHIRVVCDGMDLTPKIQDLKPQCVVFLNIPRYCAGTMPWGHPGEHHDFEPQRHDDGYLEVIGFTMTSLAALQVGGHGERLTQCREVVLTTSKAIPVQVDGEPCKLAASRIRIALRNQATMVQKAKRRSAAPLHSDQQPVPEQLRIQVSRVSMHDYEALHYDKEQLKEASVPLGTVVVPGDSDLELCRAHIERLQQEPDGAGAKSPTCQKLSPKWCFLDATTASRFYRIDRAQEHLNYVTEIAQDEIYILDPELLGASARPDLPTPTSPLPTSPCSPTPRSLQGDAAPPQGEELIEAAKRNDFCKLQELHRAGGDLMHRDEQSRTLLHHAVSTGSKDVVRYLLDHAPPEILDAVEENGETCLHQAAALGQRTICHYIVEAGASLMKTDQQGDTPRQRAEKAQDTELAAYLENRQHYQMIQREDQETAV

For the compound `Cn1c(=O)c(C#N)c(N(C)[C@H]2CC[C@@H](N(CC3CCOC3)c3ccc(F)cc3)CC2)c2nc(C#N)ccc21` (relative stereo) [Example 55, cis-8-((4-((4-fluorophenyl)((tetrahydrofuran-3-yl)methyl)amino)cyclohexyl)(methyl)amino)-5-methyl-6-oxo-5,6-dihydro-1,5-naphthyridine-2,7-dicarbonitrile], the IC50 on DGKα was below 10 nM; at DGKζ, 10 to 100 nM.
The corresponding values for `COc1cc(F)ccc1N(C1CC1)[C@H]1CC[C@H](N(C)c2c(C#N)c(=O)n(C)c3ccc(C#N)nc23)CC1` [Example 37, trans-8-((4-(cyclopropyl(4-fluoro-2-methoxyphenyl)amino)cyclohexyl)(methyl)amino)-5-methyl-6-oxo-5,6-dihydro-1,5-naphthyridine-2,7-dicarbonitrile] are at least 1000 nM and 100 to 1000 nM.
As for `Cn1c(=O)c(C#N)c(N(C)[C@H]2CC[C@@H](N(CC3CCC3)c3ccc4c(c3)OCCO4)CC2)c2nc(C#N)ccc21` [Example 170, cis-8-((4-((cyclobutylmethyl)(2,3-dihydrobenzo[b] [1,4]dioxin-6-yl)amino)cyclohexyl)(methyl)amino)-5-methyl-6-oxo-5,6-dihydro-1,5-naphthyridine-2,7-dicarbonitrile], the half-inhibitory concentration (IC50) at DGKα and on DGKζ was 10 to 100 nM each time.
On to `Cn1c(=O)c(C#N)c(N(C)[C@H]2CC[C@@H](N(CC3CCC3)c3ccc4c(c3)OCO4)CC2)c2nc(C#N)ccc21` [Example 97], for which the figures for the IC50 on DGKα and on DGKζ were below 10 nM and 10 to 100 nM, respectively.
On the same counts, the results for `Cn1c(=O)cc(N(C)[C@H]2CC[C@H](N(CC3CC3)c3ccc4c(c3)OCO4)CC2)c2nc(C#N)ccc21` [Example 88] are at least 1000 nM and at least 1000 nM.
Turning to `Cc1ccc(N(CC2CCC2)[C@H]2CC[C@@H](N(C)c3cc(=O)n(C)c4ccc(C#N)nc34)CC2)cc1OC(F)F` [Example 147, cis-8-((-4-((cyclobutylmethyl)(3-(difluoromethoxy)-4-methylphenyl)amino)cyclohexyl)(methyl)amino)-5-methyl-6-oxo-5,6-dihydro-1,5-naphthyridine-2-carbonitrile], the half-maximal inhibitory concentration (IC50) lay within 10 to 100 nM on DGKα and 100 to 1000 nM on DGKζ.
`COc1cccc(N(CC2CC2)[C@H]2CC[C@H](N(C)c3c(C#N)c(=O)n(C)c4ccc(Cl)nc34)CC2)c1` [Example 21, trans-6-chloro-4-((4-((cyclopropylmethyl)(3-methoxyphenyl)amino)cyclohexyl)(methyl)amino)-1-methyl-2-oxo-1,2-dihydro-1,5-naphthyridine-3-carbonitrile]: the concentration for half-maximal inhibition (IC50) at DGKα is 10 to 100 nM; on DGKζ, at least 1000 nM.
The corresponding values for `Cc1cc(F)ccc1N(C[C@@H]1CCCO1)[C@H]1CC[C@H](N(C)c2c(C#N)c(=O)n(C)c3ccc(C#N)nc23)CC1` [Example 168, trans-8-((-4-((4-fluoro-2-methylphenyl)(((S)-tetrahydrofuran-2-yl)methyl)amino)cyclohexyl) (methyl)amino)-5-methyl-6-oxo-5,6-dihydro-1,5-naphthyridine-2,7-dicarbonitrile] are at least 1000 nM and 100 to 1000 nM.
On the same counts, the results for `Cn1c(=O)cc(N(C)[C@H]2CC[C@@H](N(CC3COCCO3)c3cccc4c3OCO4)CC2)c2nc(C#N)ccc21` (single isomer, unassigned) [Example 195, cis-8-((-4-((((S or R)-1,4-dioxan-2-yl)methyl) (benzo[d][1,3]dioxol-4-yl)amino)cyclohexyl)(methyl)amino)-5-methyl-6-oxo-5,6-dihydro-1,5-naphthyridine-2-carbonitrile] are 100 to 1000 nM and 100 to 1000 nM.
On the same counts, the results for `Cn1c(=O)cc(N(C)[C@H]2CC[C@H](N(CC3CC3)c3ccc(F)cn3)CC2)c2nc(C#N)ccc21` [Example 3AA] are 100 to 1000 nM and at least 1000 nM.
Turning to `Cn1c(=O)cc(N(C)[C@H]2CC[C@@H](N(C(=O)C3CC3)c3ccc(F)cc3)CC2)c2nc(C#N)ccc21` [Example 208, cis-N-(4-((6-cyano-1-methyl-2-oxo-1,2-dihydro-1,5-naphthyridin-4-yl)(methyl)amino)cyclohexyl)-N-(4-fluorophenyl)cyclopropanecarboxamide], the figures for the IC50 at DGKα and at DGKζ were 100 to 1000 nM and at least 1000 nM, respectively.
For the compound `Cc1c(F)cccc1N(CC1CC1)[C@H]1CC[C@H](N(C)c2c(C#N)c(=O)n(C)c3ccc(C#N)nc23)CC1` [Example 107, trans-8-((4-((cyclopropylmethyl)(3-fluoro-2-methylphenyl)amino)cyclohexyl)(methyl)amino)-5-methyl-6-oxo-5,6-dihydro-1,5-naphthyridine-2,7-dicarbonitrile], the results for the half-maximal inhibitory concentration (IC50) at DGKα and at DGKζ were at least 1000 nM and 100 to 1000 nM, respectively.
On to `Cn1c(=O)c(C#N)c(N(C)[C@H]2CC[C@@H](N(CC3CC3)c3ccc(F)c(OC4CC4)c3)CC2)c2nc(C#N)ccc21` [Example 123, cis-8-((-4-((3-cyclopropoxy-4-fluorophenyl) (cyclopropylmethyl)amino)cyclohexyl)(methyl)amino)-5-methyl-6-oxo-5,6-dihydro-1,5-naphthyridine-2,7-dicarbonitrile], for which the IC50 at DGKα and on DGKζ was 10 to 100 nM in each case.
For the compound `Cn1c(=O)c(C#N)c(N(C)[C@H]2CC[C@@H](N(c3ccc(F)cc3)C3CC3)CC2)c2nc(Cl)ccc21` [Example 51, cis-6-chloro-4-((4-(cyclopropyl(4-fluorophenyl)amino)cyclohexyl)(methyl)amino)-1-methyl-2-oxo-1,2-dihydro-1,5-naphthyridine-3-carbonitrile], the IC50 at DGKα is below 10 nM; at DGKζ, 100 to 1000 nM.
The corresponding values for `Cn1c(=O)cc(N2CCC(N(CC3CC3)c3ccccc3O)CC2)c2nc(C#N)ccc21` [Example 1A, 8-(4-((Cyclopropylmethyl)(2-hydroxyphenyl)amino)piperidin-1-yl)-5-methyl-6-oxo-5,6-dihydro-1,5-naphthyridine-2-carbonitrile] are 100 to 1000 nM and at least 1000 nM.
As to `Cc1cc(F)ccc1N(CC1COCCO1)[C@H]1CC[C@H](N(C)c2c(C#N)c(=O)n(C)c3ccc(C#N)nc23)CC1` (stereo partly drawn) [Example 173, trans-8-((4-(((1,4-dioxan-2-yl)methyl)(4-fluoro-2-methylphenyl)amino)cyclohexyl)(methyl)amino)-5-methyl-6-oxo-5,6-dihydro-1,5-naphthyridine-2,7-dicarbonitrile], the IC50 on DGKα and at DGKζ was 100 to 1000 nM each time.
For the compound `Cc1cc(N(CC2CCC2)[C@H]2CC[C@@H](N(C)c3cc(=O)n(C)c4ccc(C#N)nc34)CC2)ccc1F` [Example 92], the IC50 was in the range of 10 to 100 nM on DGKα and 100 to 1000 nM on DGKζ.
As for `CN1C(=O)CN([C@H]2CC[C@H](N(CC3CC3)c3ccccc3)CC2)c2nc(C#N)ccc21` [Example 2A, trans-4-[4-[N-(Cyclopropylmethyl)anilino]cyclohexyl]-1-methyl-2-oxo-3H-pyrido[2,3-b]pyrazine-6-carbonitrile], the values for the IC50 at DGKα and on DGKζ were 10 to 100 nM and at least 1000 nM, respectively.
Turning to `Cc1cc(F)ccc1N(CC1CCCO1)C1CCC(N(C)c2c(C#N)c(=O)n(C)c3ccc(C#N)nc23)CC1` (stereo in doubt) [Example 153, cis-8-((-4-((4-fluoro-2-methylphenyl) ((tetrahydrofuran-2-yl)methyl)amino)cyclohexyl) (methyl)amino)-5-methyl-6-oxo-5,6-dihydro-1,5-naphthyridine-2,7-dicarbonitrile], the 50% inhibitory concentration (IC50) at DGKα and at DGKζ was 100 to 1000 nM in each case.
`Cn1c(=O)cc(N(C)[C@H]2CC[C@@H](N(CC3CCC3)c3ccc4c(c3)OCCO4)CC2)c2nc(C#N)ccc21` [Example 169, cis-8-((4-((cyclobutylmethyl)(2,3-dihydrobenzo[b] [1,4]dioxin-6-yl)amino)cyclohexyl)(methyl)amino)-5-methyl-6-oxo-5,6-dihydro-1,5-naphthyridine-2-carbonitrile]: the IC50 on DGKα and at DGKζ was 10 to 100 nM each time.
With `Cn1c(=O)cc(N(C)[C@H]2CC[C@H](N(CC3CC3)c3cc(F)cc(F)c3)CC2)c2nc(C#N)ccc21` [Example 90], the IC50 on DGKα and on DGKζ was at least 1000 nM each time.
On to `Cn1c(=O)c(C#N)c(N(C)[C@H]2CC[C@H](N(CC3CCC3)c3cccc4c3OCO4)CC2)c2nc(Cl)ccc21` [Example 132, trans-4-((-4-(benzo[d][1,3]dioxol-4-yl(cyclobutylmethyl)amino)cyclohexyl)(methyl)amino)-6-chloro-1-methyl-2-oxo-1,2-dihydro-1,5-naphthyridine-3-carbonitrile], for which the IC50 at DGKα was below 10 nM; at DGKζ, 10 to 100 nM.
On the same counts, the results for `Cn1c(=O)cc(N(C)[C@H]2CC[C@@H](N(CC3CCC3)c3cc(F)cc(F)c3)CC2)c2nc(C#N)ccc21` [Example 134, cis-8-((-4-((cyclobutylmethyl)(3,5-difluorophenyl)amino)cyclohexyl)(methyl)amino)-5-methyl-6-oxo-5,6-dihydro-1,5-naphthyridine-2-carbonitrile] are 10 to 100 nM and 100 to 1000 nM.
Regarding `Cn1c(=O)c(C#N)c(N(C)[C@H]2CC[C@H](N(CC3CCC3)c3ccc(F)cc3C3CC3)CC2)c2nc(C#N)ccc21` [Example 127, trans-8-((-4-((cyclobutylmethyl)(2-cyclopropyl-4-fluorophenyl)amino)cyclohexyl)(methyl)amino)-5-methyl-6-oxo-5,6-dihydro-1,5-naphthyridine-2,7-dicarbonitrile], the IC50 on DGKα fell in the range of 100 to 1000 nM; at DGKζ, 10 to 100 nM.
Consider `Cn1c(=O)c(C#N)c(N(C)[C@H]2CC[C@@H](N(CC3CC3)c3ccc(Cl)cc3)CC2)c2nc(Cl)ccc21` [Example 6, cis-6-chloro-4-((4-((4-chlorophenyl) (cyclopropylmethyl)amino)cyclohexyl)(methyl)amino)-1-methyl-2-oxo-1,2-dihydro-1,5-naphthyridine-3-carbonitrile], for which the IC50 on DGKα was 10 to 100 nM; on DGKζ, at least 1000 nM.
